Counter-ions that a name gives are not always drawn.
How the values were obtained:
RON (human) = RON (human) (Homo sapiens, UniProt Q04912); test: RON kinase AlphaScreen assay (Km of ATP); format: biochemical; conditions: ATP at Km; at least duplicate experiments
In short: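 Human RON phosphorylated biotinylated poly(Glu,Tyr) (200 ng/μL) at Km ATP in 50 mM HEPES pH 7.4, 12.5 mM MgCl2, 1% glycerol, 0.334 mM vanadate, 1% DMSO. Reaction ran 30 min at RT after enzyme addition. Product was detected by AlphaScreen with PT66 beads after 1 h.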

MET (human) = MET (human) (Homo sapiens, UniProt P08581); test: MET kinase AlphaScreen assay (Km of ATP); format: biochemical; conditions: ATP at Km; at least duplicate experiments
In short: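 Biotinylated poly(Glu,Tyr) (200 ng/μL) phosphorylated by MET with ATP at an enzyme-optimized level, in 50 mM HEPES pH 7.4 with Mg2+/Mn2+ and vanadate, 1% DMSO. Reaction runs 60 min at RT. PT66 AlphaScreen donor/acceptor beads are added and signal is read after 1 h.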

MET (human), sequence (P08581 25-1390): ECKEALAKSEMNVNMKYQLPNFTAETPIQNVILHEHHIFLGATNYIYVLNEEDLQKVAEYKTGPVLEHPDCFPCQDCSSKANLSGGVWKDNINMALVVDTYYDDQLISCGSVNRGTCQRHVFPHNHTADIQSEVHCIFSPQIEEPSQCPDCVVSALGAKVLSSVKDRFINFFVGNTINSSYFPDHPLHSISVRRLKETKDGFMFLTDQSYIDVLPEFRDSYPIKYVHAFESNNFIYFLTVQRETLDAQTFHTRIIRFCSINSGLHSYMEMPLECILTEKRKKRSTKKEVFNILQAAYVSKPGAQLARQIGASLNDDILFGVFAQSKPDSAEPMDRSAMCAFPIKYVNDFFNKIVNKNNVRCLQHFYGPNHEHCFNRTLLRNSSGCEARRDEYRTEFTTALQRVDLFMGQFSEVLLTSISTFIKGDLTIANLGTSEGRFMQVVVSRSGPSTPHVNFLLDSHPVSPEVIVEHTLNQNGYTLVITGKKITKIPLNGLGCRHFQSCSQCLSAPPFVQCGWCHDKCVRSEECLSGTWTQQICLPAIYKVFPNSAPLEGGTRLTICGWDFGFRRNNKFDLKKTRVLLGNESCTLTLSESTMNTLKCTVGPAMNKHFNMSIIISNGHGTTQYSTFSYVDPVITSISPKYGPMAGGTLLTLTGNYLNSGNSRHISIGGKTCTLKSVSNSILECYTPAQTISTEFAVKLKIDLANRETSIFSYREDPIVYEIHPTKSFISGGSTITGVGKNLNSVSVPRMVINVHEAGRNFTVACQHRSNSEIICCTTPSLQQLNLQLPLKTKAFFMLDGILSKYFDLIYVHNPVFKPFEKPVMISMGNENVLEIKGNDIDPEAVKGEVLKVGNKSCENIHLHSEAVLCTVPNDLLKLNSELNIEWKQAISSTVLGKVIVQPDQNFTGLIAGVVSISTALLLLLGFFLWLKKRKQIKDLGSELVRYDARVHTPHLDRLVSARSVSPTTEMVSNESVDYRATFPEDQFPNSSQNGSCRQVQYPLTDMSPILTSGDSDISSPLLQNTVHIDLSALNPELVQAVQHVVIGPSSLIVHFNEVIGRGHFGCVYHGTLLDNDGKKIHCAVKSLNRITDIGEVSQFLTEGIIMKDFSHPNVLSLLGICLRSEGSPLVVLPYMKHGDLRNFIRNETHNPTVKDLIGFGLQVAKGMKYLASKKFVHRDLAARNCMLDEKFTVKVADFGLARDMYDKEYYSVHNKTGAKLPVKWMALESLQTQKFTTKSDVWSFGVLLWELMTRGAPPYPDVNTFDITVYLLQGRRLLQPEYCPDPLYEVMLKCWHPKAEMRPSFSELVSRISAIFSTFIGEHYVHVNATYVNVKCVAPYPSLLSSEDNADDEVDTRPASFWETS
RON (human), sequence (Q04912 25-1400): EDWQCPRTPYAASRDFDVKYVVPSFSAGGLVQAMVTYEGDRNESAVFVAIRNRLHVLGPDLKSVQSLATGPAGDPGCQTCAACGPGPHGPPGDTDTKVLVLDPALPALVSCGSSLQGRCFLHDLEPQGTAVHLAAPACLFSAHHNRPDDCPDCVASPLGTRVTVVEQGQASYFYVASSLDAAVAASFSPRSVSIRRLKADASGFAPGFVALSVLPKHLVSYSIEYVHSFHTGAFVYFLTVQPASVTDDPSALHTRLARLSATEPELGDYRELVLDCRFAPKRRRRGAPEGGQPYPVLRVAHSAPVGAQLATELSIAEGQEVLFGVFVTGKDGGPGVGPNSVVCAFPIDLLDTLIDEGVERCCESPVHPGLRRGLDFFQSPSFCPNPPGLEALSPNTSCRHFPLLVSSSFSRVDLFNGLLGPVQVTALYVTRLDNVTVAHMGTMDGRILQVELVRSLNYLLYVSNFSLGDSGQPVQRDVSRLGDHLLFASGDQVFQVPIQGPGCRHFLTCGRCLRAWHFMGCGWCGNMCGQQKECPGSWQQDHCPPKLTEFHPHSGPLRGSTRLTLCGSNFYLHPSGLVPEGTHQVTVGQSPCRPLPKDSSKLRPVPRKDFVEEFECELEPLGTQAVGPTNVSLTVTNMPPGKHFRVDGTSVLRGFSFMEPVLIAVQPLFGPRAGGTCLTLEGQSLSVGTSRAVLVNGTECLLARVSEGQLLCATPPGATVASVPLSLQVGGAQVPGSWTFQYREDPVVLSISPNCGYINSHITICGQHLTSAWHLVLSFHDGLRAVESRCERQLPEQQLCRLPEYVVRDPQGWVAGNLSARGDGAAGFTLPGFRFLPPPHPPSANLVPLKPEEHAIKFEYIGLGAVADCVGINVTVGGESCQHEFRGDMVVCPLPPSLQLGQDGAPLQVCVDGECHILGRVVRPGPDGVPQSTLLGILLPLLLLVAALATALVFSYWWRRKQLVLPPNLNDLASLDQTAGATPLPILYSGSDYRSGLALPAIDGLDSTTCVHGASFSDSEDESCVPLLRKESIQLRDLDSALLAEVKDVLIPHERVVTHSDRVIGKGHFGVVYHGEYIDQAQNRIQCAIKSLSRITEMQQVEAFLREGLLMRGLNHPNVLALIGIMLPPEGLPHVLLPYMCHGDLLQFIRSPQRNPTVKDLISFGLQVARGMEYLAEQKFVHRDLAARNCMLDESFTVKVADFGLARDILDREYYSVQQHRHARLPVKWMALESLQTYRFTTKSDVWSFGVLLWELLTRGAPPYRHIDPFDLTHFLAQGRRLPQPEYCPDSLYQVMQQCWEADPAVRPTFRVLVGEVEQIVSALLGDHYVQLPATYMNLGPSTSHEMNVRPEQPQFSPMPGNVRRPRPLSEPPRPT

Row | SMILES | IC50 (RON (human)) | IC50 (MET (human))
1 | Nc1ncc(-c2cnn(CCC(=O)NCCO)c2)cc1-c1nc2ccccc2s1 [Example 293, 3-[4-(6-Amino-5-benzothiazol-2-ylpyridin-3-yl)-pyrazol-1-yl]-N-(2-hydroxyethyl)-propionamide] | 1000 to 20000 nM | 100 to 1000 nM
2 | COCCN(CCOC)C(=O)CCn1cc(-c2cnc(N)c(-c3nc4ccccc4s3)c2)cn1 [Example 294, 3-[4-(6-Amino-5-benzothiazol-2-ylpyridin-3-yl)-pyrazol-1-yl]-N,N-bis-(2-methoxyethyl)-propionamide] | 1000 to 20000 nM | 1000 to 20000 nM
3 | CN(C)C(=O)CCn1cc(-c2cnc(N)c(-c3nc4ccccc4s3)c2)cn1 [Example 295, 3-[4-(6-Amino-5-benzothiazol-2-ylpyridin-3-yl)-pyrazol-1-yl]-N,N-dimethylpropionamide] | 1000 to 20000 nM | 100 to 1000 nM
4 | CNC(=O)CCn1cc(-c2cnc(N)c(-c3nc4ccccc4s3)c2)cn1 [Example 296, 3-[4-(6-Amino-5-benzothiazol-2-ylpyridin-3-yl)-pyrazol-1-yl]-N-methylpropionamide] | 1000 to 20000 nM | 1000 to 20000 nM
5 | NC(=O)CCn1cc(-c2cnc(N)c(-c3nc4ccccc4s3)c2)cn1 [Example 297, 3-[4-(6-Amino-5-benzothiazol-2-ylpyridin-3-yl)-pyrazol-1-yl]-propionamide] | 1000 to 20000 nM | 100 to 1000 nM
6 | Nc1ncc(-c2cnn(C3CCNCC3)c2)cc1-c1nc2c(s1)CCCC2 [Example 298, 5-(1-Piperidin-4-yl-1H-pyrazol-4-yl)-3-(4,5,6,7-tetrahydro-benzothiazol-2-yl)-pyridin-2-ylamine] | ≤ 100 nM | ≤ 100 nM
7 | Nc1ncc(-c2cnn(C3CCNCC3)c2)cc1-c1nc2c(s1)CCCCC2 [Example 299, 5-(1-Piperidin-4-yl-1H-pyrazol-4-yl)-3-(5,6,7,8-tetrahydro-4H-cycloheptathiazol-2-yl)-pyridin-2-ylamine] | 100 to 1000 nM | 100 to 1000 nM
8 | Nc1ncc(-c2cnn(C3CCNCC3)c2)cc1N1CCc2ccccc2C1 [Example 300, 3-(3,4-Dihydro-1H-isoquinolin-2-yl)-5-(1-piperidin-4-yl-1H-pyrazol-4-yl)-pyridin-2-ylamine] | 1000 to 20000 nM | 100 to 1000 nM
9 | Nc1ncc(-c2cnn(C3CCNCC3)c2)cc1N1CCc2c(F)cccc2C1 [Example 301, 3-(5-Fluoro-3,4-dihydro-1H-isoquinolin-2-yl)-5-(1-piperidin-4-yl-1H-pyrazol-4-yl)-pyridin-2-ylamine] | 1000 to 20000 nM | 1000 to 20000 nM
10 | Nc1ncc(-c2cnn(C3CCNCC3)c2)cc1N1CCc2c(Cl)cccc2C1 [Example 302, 3-(5-Chloro-3,4-dihydro-1H-isoquinolin-2-yl)-5-(1-piperidin-4-yl-1H-pyrazol-4-yl)-pyridin-2-ylamine] | 100 to 1000 nM | 100 to 1000 nM
11 | Nc1ncc(-c2cnn(C3CCNCC3)c2)cc1N1CCc2c(F)ccc(F)c2C1 [Example 303, 3-(5,8-Difluoro-3,4-dihydro-1H-isoquinolin-2-yl)-5-(1-piperidin-4-yl-1H-pyrazol-4-yl)-pyridin-2-ylamine] | 100 to 1000 nM | 100 to 1000 nM
12 | Nc1ncc(-c2cnn(C3CCNCC3)c2)cc1-c1ccc2ccccc2c1 [Example 304, 3-Naphthalen-2-yl-5-(1-piperidin-4-yl-1H-pyrazol-4-yl)-pyridin-2-ylamine trihydrochloride] | 1000 to 20000 nM | 100 to 1000 nM
